Reference: US20250042879A1, “HETEROCYCLIC SUBSTITUTED 1,3,4-THIADIAZOLE AND PYRIDAZINE COMPOUNDS AND METHODS OF USING THE SAME” (Rgenta Therapeutics, Inc., priority 2021, published 2025)

Assays:
Type in all cases: cell-based
[1] = system: HTT (exclusion transcript); test: RT-qPCR assay to quantify changes in HTT splice isoforms: exclusion transcript; settings: Homo sapiens, SK-N-SH cells, approximately 96 hours, GAPDH reference
Description: (§1) SK—N—SH cells were seeded at 8.5e3 per well in a 96 well plate, in […] (×4 plates, quadruplicate) and treated with the indicated compounds at different concentrations with a final DMSO concentration of 0.5%. Vehicle controls were set up by diluting DMSO 1:200. Cells were returned to a humidified incubator at 37° C., 5% CO2 and treated for approximately 96 hours.
(§2) RNA was isolated from each well using QIAGEN RNeasy mini columns (cat #74004) as per the manufacturer's instructions. Each condition was done in quadruplicate as mentioned above to allow for adequate starting template for downstream analyses. These quadruplicates were pooled (by condition) into single replicates at the cell lysis step. Reverse-transcription was done using the Applied Biosystems High-Capacity cDNA Reverse Transcription Kit (cat #4368814), per the manufacturer's instructions, using approximately half of the harvested RNA. The cDNA was diluted 1:10 in nuclease-free water, and qPCR was done using Applied Biosystems PowerUp SYBR Green Master Mix (cat #A25742) per the manufacturer's instructions. Cycling conditions are primers are detailed below. Each sample was run in technical duplicates.
(§3) Data were analyzed using the 2-DDCT method. GAPDH was used as the reference gene, and vehicle (i.e. DMSO only) treated cells were used as the reference/untreated cell populations. Relative expression of the HTT transcripts was plotted using Graphpad Prism.

[2] = system: HTT (inclusion transcript); test: RT-qPCR assay to quantify changes in HTT splice isoforms: inclusion transcript; settings: Homo sapiens, SK-N-SH cells, approximately 96 hours, GAPDH reference
Description: as §1, §2, §3

HTT = test: Mini-gene reporter assay-HTT (firefly luciferase, exon inclusion); settings: for EC50: Homo sapiens, HTT mini-gene firefly luciferase reporter transiently transfected into HEK293 cells; for Emax at 5 µM: HTT Minigene, read-out: % Efficacy at 5 μM
Summary of the method: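 HEK293 cells transiently transfected with a pcDNA3.1 mini-gene carrying the alternatively skipped exon with flanking introns and exons fused to firefly luciferase were incubated with compound, in duplicate. Exon inclusion raises luciferase luminescence. EC50 came from Levenberg-Marquardt curve fitting.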

Row | SMILES | Emax at 5 µM (HTT) [%] | also measured
1 | Cc1cn2cc(-c3ccc(-c4ccc(C5CN(C)C5)nn4)c(O)c3)cc(F)c2n1 [Compound 12, 5-{8-fluoro-2-methylimidazo[1,2-a]pyridin-6-yl}-2-[6-(1-methylazetidin-3-yl)pyridazin-3-yl]phenol] | – | EC50 [1]: < 50 nM; EC50 [2]: 500 to 1000 nM; EC50 (HTT): 50 to 500 nM
2 | Cc1cn2cc(-c3ccc(-c4ccc(C5CN(C(C)C)C5)nn4)c(O)c3)cc(F)c2n1 [Compound 15, 5-{8-fluoro-2-methylimidazo[1,2-a]pyridin-6-yl}-2-{6-[1-(propan-2-yl)azetidin-3-yl]pyridazin-3-yl}phenol] | – | EC50 [1]: < 50 nM; EC50 [2]: < 50 nM; EC50 (HTT): 50 to 500 nM
3 | Cn1cc2cc(-c3ccc(-c4ccc(C5CN(C6CCOCC6)C5)nn4)c(O)c3)ccc2n1 [Compound 22, 5-(2-methyl-2H-indazol-5-yl)-2-{6-[1-(oxan-4-yl)azetidin-3-yl]pyridazin-3-yl}phenol] | – | EC50 [1]: < 50 nM; EC50 (HTT): 500 to 1000 nM
4 | CC(C)N1CC(c2ccc(-c3ccc(-c4ccc5nn(C)cc5c4)cc3O)nn2)C1 [Compound 23, 2-(6-(1-isopropylazetidin-3-yl)pyridazin-3-yl)-5-(2-methyl-2H-indazol-5-yl)phenol] | – | EC50 [1]: < 50 nM; EC50 [2]: > 1000 nM; EC50 (HTT): ≥ 1000 nM
5 | Cc1cn2cc(-c3ccc(-c4ccc(C5CN(C)C5)nn4)c(O)c3)cc(C(F)(F)F)c2n1 [Compound 26, 5-[2-methyl-8-(trifluoromethyl)imidazo[1,2-a]pyridin-6-yl]-2-[6-(1-methylazetidin-3-yl)pyridazin-3-yl]phenol] | – | EC50 [1]: 50 to 500 nM; EC50 [2]: 500 to 1000 nM; EC50 (HTT): ≥ 1000 nM
6 | COc1cc(-c2ccc(-c3ccc(C4CN(C)C4)nn3)c(O)c2)cc2cn(C)nc12 [Compound 28, 5-(7-methoxy-2-methyl-2H-indazol-5-yl)-2-[6-(1-methylazetidin-3-yl)pyridazin-3-yl]phenol] | – | EC50 [1]: < 50 nM; EC50 [2]: 500 to 1000 nM; EC50 (HTT): 50 to 500 nM
7 | CCN1CC(c2ccc(-c3ccc(-c4cc(C)c5nc(C)cn5c4)cc3O)nn2)C1 [Compound 36, 5-{2,8-dimethylimidazo[1,2-a]pyridin-6-yl}-2-[6-(1-ethylazetidin-3-yl)pyridazin-3-yl]phenol] | – | EC50 [1]: 50 to 500 nM; EC50 (HTT): ≥ 1000 nM
8 | CCN1CC(c2ccc(-c3ccc(-c4ccc5nc(C)cn5n4)cc3O)nn2)C1 [Compound 38, 2-[6-(1-ethylazetidin-3-yl)pyridazin-3-yl]-5-{2-methylimidazo[1,2-b]pyridazin-6-yl}phenol] | – | EC50 [1]: < 50 nM; EC50 [2]: > 1000 nM; EC50 (HTT): 50 to 500 nM
9 | COc1cc(-c2ccc(-c3ccc(C4CN(C(C)C5CCOCC5)C4)nn3)c(O)c2)cc2cn(C)nc12 (stereo not drawn) [Compound 156] | > 750 | –
10 | COc1cc(-c2ccc(-c3ccc(C4CN(C(C)C5CCC5)C4)nn3)c(O)c2)cc2cn(C)nc12 (stereo not drawn) [Compound 157] | > 750 | –
11 | COc1cc(-c2ccc(-c3ccc(C4CN(C(C)CC5CCOC5)C4)nn3)c(O)c2)cc2cn(C)nc12 (stereo not drawn) [Compound 158] | > 750 | –
12 | COc1cc(-c2ccc(-c3ccc(C4CN(Cc5ccc(O)nc5)C4)nn3)c(O)c2)cc2cn(C)nc12 [Compound 159] | 25 to 75 | –
13 | COc1cc(-c2ccc(-c3ccc(C4CN(C5CC(OC)C5)C4)nn3)c(O)c2)cc2cn(C)nc12 (stereo not drawn) [Compound 160] | 25 to 75 | –
14 | COc1cc(-c2ccc(-c3ccc(C4CN(Cc5cc(C6CC6)[nH]n5)C4)nn3)c(O)c2)cc2cn(C)nc12 [Compound 161] | 25 to 75 | –
15 | COc1cc(-c2ccc(-c3ccc(C4CN(Cc5cnc(C)o5)C4)nn3)c(O)c2)cc2cn(C)nc12 [Compound 162] | 25 to 75 | –
16 | CCOC1CC(N2CC(c3ccc(-c4ccc(-c5cc(OC)c6nn(C)cc6c5)cc4O)nn3)C2)C1 (stereo not drawn) [Compound 163] | 25 to 75 | –
17 | COc1cc(-c2ccc(-c3ccc(C4CN(C5CCC(C#N)CC5)C4)nn3)c(O)c2)cc2cn(C)nc12 (stereo not drawn) [Compound 164] | > 750 | –
18 | COc1cc(-c2ccc(-c3ccc(C4CN(CC5CCSCC5)C4)nn3)c(O)c2)cc2cn(C)nc12 [Compound 167] | 25 to 75 | –
19 | COc1cc(-c2ccc(-c3ccc(C4CN(CCC5CCOCC5)C4)nn3)c(O)c2)cc2cn(C)nc12 [Compound 168] | > 750 | –
20 | COc1cc(-c2ccc(-c3ccc(C4CN(CC(C)CCC#N)C4)nn3)c(O)c2)cc2cn(C)nc12 (stereo not drawn) [Compound 169] | > 750 | –
21 | COc1cc(-c2ccc(-c3ccc(C4CN(Cc5ocnc5C)C4)nn3)c(O)c2)cc2cn(C)nc12 [Compound 170] | < 25 | –
22 | COc1cc(-c2ccc(-c3ccc(C4CN(C5CC6(CCOCC6)C5)C4)nn3)c(O)c2)cc2cn(C)nc12 [Compound 171] | 25 to 75 | –

Row | SMILES | Emax at 5 µM (HTT) [%] | also measured
23 | COc1cc(-c2ccc(-c3ccc(C4CN(C5CCOC6(CCC6)C5)C4)nn3)c(O)c2)cc2cn(C)nc12 (stereo not drawn) [Compound 172] | 25 to 75 | –
24 | COc1cc(-c2ccc(-c3ccc(C4CN(C(C)Cc5cnccn5)C4)nn3)c(O)c2)cc2cn(C)nc12 (stereo not drawn) [Compound 173] | 25 to 75 | –
25 | COc1cc(-c2ccc(-c3ccc(C4CN(CC5(SC)CC5)C4)nn3)c(O)c2)cc2cn(C)nc12 [Compound 174] | 25 to 75 | –
26 | CCc1ncc(CN2CC(c3ccc(-c4ccc(-c5cc(OC)c6nn(C)cc6c5)cc4O)nn3)C2)cn1 [Compound 175] | 25 to 75 | –
27 | CCCC(CN1CC(c2ccc(-c3ccc(-c4cc(OC)c5nn(C)cc5c4)cc3O)nn2)C1)OC (stereo not drawn) [Compound 176] | 25 to 75 | –
28 | COc1cc(-c2ccc(-c3ccc(C4CN(C5CC(C)OC5C)C4)nn3)c(O)c2)cc2cn(C)nc12 (stereo not drawn) [Compound 177] | 25 to 75 | –
29 | CCC(C)(CN1CC(c2ccc(-c3ccc(-c4cc(OC)c5nn(C)cc5c4)cc3O)nn2)C1)OC (stereo not drawn) [Compound 178] | < 25 | –
30 | COCC1CCC(N2CC(c3ccc(-c4ccc(-c5cc(OC)c6nn(C)cc6c5)cc4O)nn3)C2)CC1 (stereo not drawn) [Compound 179] | 25 to 75 | –
31 | COc1cc(-c2ccc(-c3ccc(C4CN(Cc5ccc(C)nn5)C4)nn3)c(O)c2)cc2cn(C)nc12 [Compound 180] | 25 to 75 | –
32 | COc1cc(-c2ccc(-c3ccc(C4CN(Cc5ccc(CO)cc5)C4)nn3)c(O)c2)cc2cn(C)nc12 [Compound 181] | 25 to 75 | –
33 | COc1cc(-c2ccc(-c3ccc(C4CN(Cc5cnsc5)C4)nn3)c(O)c2)cc2cn(C)nc12 [Compound 182] | 25 to 75 | –
34 | COc1cc(-c2ccc(-c3ccc(C4CN(C5CCCSCC5)C4)nn3)c(O)c2)cc2cn(C)nc12 (stereo not drawn) [Compound 183] | > 750 | –
35 | COc1cc(-c2ccc(-c3ccc(C4CN(Cc5cc6n(n5)CCC6)C4)nn3)c(O)c2)cc2cn(C)nc12 [Compound 184] | 25 to 75 | –
36 | COc1cc(-c2ccc(-c3ccc(C4CN(CC5CC6CC6C5)C4)nn3)c(O)c2)cc2cn(C)nc12 (stereo not drawn) [Compound 185] | 25 to 75 | –
37 | COc1cc(-c2ccc(-c3ccc(C4CN(CC5CCC6CC6C5)C4)nn3)c(O)c2)cc2cn(C)nc12 (stereo not drawn) [Compound 186] | 25 to 75 | –
38 | COc1cc(-c2ccc(-c3ccc(C4CN(C(C)C5CCCCO5)C4)nn3)c(O)c2)cc2cn(C)nc12 (stereo not drawn) [Compound 187] | 25 to 75 | –
39 | COc1cc(-c2ccc(-c3ccc(C4CN(C5CC6(COC(C)C6)C5)C4)nn3)c(O)c2)cc2cn(C)nc12 (stereo not drawn) [Compound 188] | 25 to 75 | –
40 | COc1cc(-c2ccc(-c3ccc(C4CN(Cc5ccn(C(C)C)n5)C4)nn3)c(O)c2)cc2cn(C)nc12 [Compound 189] | < 25 | –
41 | COc1cc(-c2ccc(-c3ccc(C4CN(CC5C6CCCCC65)C4)nn3)c(O)c2)cc2cn(C)nc12 (stereo not drawn) [Compound 190] | 25 to 75 | –
42 | COc1cc(-c2ccc(-c3ccc(C4CN(Cc5cn(C(C)C)cn5)C4)nn3)c(O)c2)cc2cn(C)nc12 [Compound 191] | 25 to 75 | –
43 | Cc1cc2cc(-c3ccc(-c4ccc(C5CN(C6CCOCC6)C5)nn4)c(O)c3)ccn2n1 [Compound 192, 5-(2-methylpyrazolo[1,5-a]pyridin-5-yl)-2-(6-(1-(tetrahydro-2H-pyran-4-yl)azetidin-3-yl)pyridazin-3-yl)phenol 2,2,2-trifluoroacetate] | – | EC50 (HTT): ≥ 1000 nM
